For 96 compounds, cytotoxicity results are on record in ChEMBL document CHEMBL3507680, “University of Dundee, Gates Library screen for HepG2 cell viability”.

This data set can be described thus: Human HepG2 cell viability assay in 384 well format. Format: toxicity, cell-based. Particulars: HepG2 cells, read-out: Inhibition. Details: dose 125 nL, time 70.5 hour; cytotoxicity at 70.5 h: concentration not given beside the values.
Take `COC(=O)CCCn1ccnc1-c1ccc(OC)c(F)c1F`: the cytotoxicity at 70.5 h came out at 3.06%.
With `CCC(C)N(Cc1ccncc1)C(=O)CCSC` (stereo unspecified) the figure was -10.6%; with `Cc1nc2c(C(=O)N[C@H]3C[C@H]4CN(C)CCN4C3)cccc2[nH]1`, -10.2%; with `CN(CCCc1nccn1C)C(=O)C1CCN(C(=O)C2CCCC2)CC1`, 4.09%.
With `COc1cc2[nH]c(=O)c(CN3CCCC3C)cc2c(OC)c1OC` (stereo unspecified) the figure was -6.4%; with `CC(C)c1nccn1Cc1cc(C(=O)NCC(F)(F)F)n[nH]1`, -9.18%.
With `COc1ccc(OCc2nccc(-c3cc(C(=O)O)ccn3)n2)cc1` the figure was -2.16%; with `COCCn1c(CN2CCCCO2)cnc1S(=O)(=O)CC1CCCCC1`, -2.46%.
For the compound `Cc1cc(C)c2[nH]c(=O)c(CN3CCCC4(C3)CN(C)C(=O)O4)cc2c1` (stereo unspecified), the cytotoxicity at 70.5 h was -8.68%.
`CCC[C@H]1CN(CCS(C)(=O)=O)C[C@@H]1NC(=O)Cn1cc(C)cn1`: the cytotoxicity at 70.5 h was -6.99%.
With `CC(=O)N1C[C@H]2CNC[C@@]2(C(=O)NCCOc2ccccc2F)C1` the figure was 0.818%.
For `O=C(CCc1nc2ccccc2[nH]1)NC1CCOC2(CCOCC2)C1` (stereo unspecified), the cytotoxicity at 70.5 h worked out at 20.1%.
With `CSc1ncc(C(=O)N2C[C@H]3CC[C@@H]2CN(c2ncccn2)C3)cn1` the figure was 24.3%; with `COc1ccc(C(=O)N2C[C@@H](C(=O)O)[C@H](c3ccccc3)C2)c(C)c1`, 11.5%.
With `CCNc1ncc(C)c(-c2cnn(C)c2)n1` the figure was -13.2%; with `c1ccc(-n2cnnc2CCCN2CCOCC2)cc1`, -2.59%; with `Cc1n[nH]c(C)c1CCCN(C)c1cc(N(C)C)ncn1`, 6.66%.
With `Cc1csc(N2CCC(CCN3CCCC3=O)CC2)n1` the figure was -14.3%; with `Nc1cc(-c2cc(C(=O)O)ccc2Cl)c2cc[nH]c2n1`, -8.39%.
In the case of `CCOc1ccc(C2CC(=O)NCc3nc(N)sc32)cc1CO` (stereo unspecified), the cytotoxicity at 70.5 h was -6.2%.
With `Cc1cc(C[C@@H]2COC[C@@H]2NC(=O)CN2CCc3ccccc3C2)on1` the figure was 8.76%.
With `CCCc1nc(N[C@H]2COC[C@@H]2N2CCCC2)c2cnn(C)c2n1` the figure was -7.83%; with `CCOc1cc(Cl)c(CN2CCC3(CCCNC3=O)C2)cc1OC` (stereo unspecified), -5.69%; with `CCn1c(C2CCN(C(=O)c3ccc4cc[nH]c4c3)CC2)n[nH]c1=O`, 9.25%.
With `Cn1cc(CN2CCCC(CCc3ccc(F)cc3F)C2)cn1` (stereo unspecified) the figure was -3.89%; with `O=C(c1ccon1)N1CCc2ncnc(NCc3cccnc3)c2CC1`, -5.39%; with `CCCN1CCN(C(=O)c2cnc(C)nc2)[C@H]2CS(=O)(=O)C[C@H]21`, -0.0232%.
`COCCN1CC(=O)N2CC[C@@H](O)C[C@H]2C1=O`: the cytotoxicity at 70.5 h is 28.2%.
Take `O=C(c1ccoc1)N1CCCN(CC2CCOc3ccccc3C2)CC1` (stereo unspecified): the cytotoxicity at 70.5 h came to 18.3%.
With `Cc1n[nH]c(C)c1CN1CC[C@@H]2[C@@H](CCC(=O)N2CCc2c[nH]cn2)C1` the figure was 1.53%; with `CCCc1nnc(N2CCN(Cc3ccccc3OC)CC2)o1`, 23.6%.
With `CCCn1cnnc1CNC(=O)CC1C(=O)NCCN1C(C)C` (stereo unspecified), the cytotoxicity at 70.5 h amounted to 10.7%.
For `Cc1nc(CN(CCc2ccccc2)C2CCN(C)CC2)no1`, the cytotoxicity at 70.5 h is -10.3%.
As to `Cc1n[nH]c(C)c1CNC(=O)c1cn(CCC2CCCCN2)nn1` (stereo unspecified), the cytotoxicity at 70.5 h is -1.34%.
With `CC(C)N(C)CCC(=O)N1CCCC(c2ccc(C(=O)O)cc2)C1` (stereo unspecified) the figure was -7.94%.
With `O=C(O)[C@]12CCCN(Cc3ccccn3)[C@@H]1CCN(c1cnccn1)C2` the figure was -3.65%; with `CC(C)Cc1cc(CNC(=O)C2CCCN(C(=O)N(C)C)C2)no1` (stereo unspecified), -2.31%; with `CCSCC(C)NCc1nn(C)c2ccc(C)cc12` (stereo unspecified), -5.67%.
With `CN(CCc1ccccn1)[C@@H]1CCN(c2cccc(C#N)n2)C[C@H]1O` the figure was 0.836%; with `CCc1cc(N[C@@H](CC(C)C)C(N)=O)n2nc(C)c(C)c2n1`, -8.65%.
As to `COc1cnc(N2CCCC(c3ncc[nH]3)C2)nc1` (stereo unspecified), the cytotoxicity at 70.5 h was -3.19%.
With `O=C(CCN1CCOC(C(F)(F)F)C1)NCc1ccccc1Cl` (stereo unspecified) the figure was 15.4%; with `Cc1nn(C)c2nc(N3CCCCC3c3nccs3)sc12` (stereo unspecified), 5.1%.
With `COCc1cc(N2CCOC(c3ccc(F)cc3)C2)ncn1` (stereo unspecified) the figure was -14.9%.
Turning to `Cc1ccsc1[C@@H]1CCN(C(=O)CCc2nc3ccccc3[nH]2)C[C@H]1O`, the cytotoxicity at 70.5 h was 5.42%.
On to `CC(=O)Cc1c(C)nn(-c2cncc(N)c2)c1C`, for which the cytotoxicity at 70.5 h is -1.56%.
With `CCC(NC(=O)CC1CCN(CC)CC1)c1cn2cccnc2n1` (stereo unspecified) the figure was -5.63%.
In the case of `CSCC(=O)N[C@H]1CC[C@H](Nc2nccc(-c3cccnc3)n2)C1`, the cytotoxicity at 70.5 h was found to be 16.3%.
With `Cn1ccnc1CN1CCC(CCC(=O)Nc2ccccc2Cl)CC1` the figure was -2.64%; with `Fc1cccc(OC2CCN(CCn3cc4ccccc4n3)CC2)c1`, -21.6%; with `N#Cc1cc2c(=O)n(CC(O)Cc3ccccc3)ccc2[nH]c1=O` (stereo unspecified), -13.6%.
With `CCNC(=O)[C@@H]1C[C@@H](n2cc(CC3CCCCC3)nn2)CN1`, the cytotoxicity at 70.5 h was -9.79%.
Regarding `CN(Cc1ccncn1)C(=O)C1(Oc2ccc(Cl)cc2)CCNCC1`, the cytotoxicity at 70.5 h was -4.8%.
Take `Cc1cnccc1-n1nc(C(C)C)nc1CCc1cnccn1`: the cytotoxicity at 70.5 h was -19.8%.
With `COCc1noc(-c2ccc(N3CCCC3c3ccc(F)cc3)nc2)n1` (stereo unspecified) the figure was -3.49%.
With `CC(Cn1cncn1)Nc1ccc(-c2nccn2C)nn1` (stereo unspecified) the figure was -7.86%; with `CCOc1ccc(C(=O)CCC(=O)N(C)Cc2noc(C)n2)cc1C`, -6.08%; with `CNc1cc(C)nc(N2C[C@H](C3CC3)[C@@H](N)C2)n1`, 6.57%.
With `O=C(c1cccnc1N1CCOC(c2ccc(F)cc2)C1)N1CCCC1` (stereo unspecified) the figure was -14.7%; with `CCC(O)Cn1nc(CCSC)nc1-c1ccc2[nH]ccc2c1` (stereo unspecified), 1.48%; with `CNC(=O)CN(C)c1nc(-c2ccc(C(N)=O)cc2)nc2c1CCNC2`, -0.358%.
As to `N#Cc1cccnc1Oc1cc(F)c(CN2CCCC2)c(Cl)c1`, the cytotoxicity at 70.5 h is -1.54%.
With `COCCNc1nc2c(c(NCc3cnc(C)cn3)n1)CCNCC2` the figure was -4.71%; with `CCCC1(CO)CCCN(Cc2ncccn2)C1` (stereo unspecified), -5.25%; with `CCCSCC(=O)N1CCN(c2ccc(OC)cc2)CC1C` (stereo unspecified), -2.57%.
With `O=C(c1cc[nH]n1)N1CCc2ncnc(NCc3ccccn3)c2CC1` the figure was -8.31%; with `CSCCc1n[nH]c2c1CN(S(=O)(=O)c1cn(C)c(C)n1)CC2`, -4.85%.
Consider `O=C(CCc1ccsc1)N1CCC(n2cc(CO)nn2)CC1`, for which the cytotoxicity at 70.5 h was -13.1%.
In the case of `Cn1ccnc1SCCNc1nccc(C(F)(F)F)n1`, the cytotoxicity at 70.5 h was 16%.
With `Fc1cc(Cl)cnc1N1CCCC(c2nccn2Cc2ccncc2)C1` (stereo unspecified) the figure was -14%; with `c1cnnc(N2CCC(c3nnc(Cn4ccnc4)n3C3CC3)CC2)c1`, -4.27%.
As for `O=C(COCC1CCCCO1)N1CCN(Cc2ccccc2F)C(=O)C1` (stereo unspecified), the cytotoxicity at 70.5 h is -1.62%.
`CN(CCCC1CCCC1)C(=O)c1cc(CN2CCC(O)CC2)on1`: the cytotoxicity at 70.5 h is 10.4%.
For `COCC1(CNC(=O)[C@@]23CNC[C@@H]2CN(C2CCCC2)C3)CC1`, the cytotoxicity at 70.5 h is -3.2%.
For `CN(C)CC1(O)CCCN(Cc2ccccc2OCC(=O)N(C)C)C1` (stereo unspecified), the cytotoxicity at 70.5 h is 2.4%.
Turning to `Cc1nc(N2C[C@H]3CC[C@@H](C2)N3)nc2cc(S(C)(=O)=O)ccc12`, the cytotoxicity at 70.5 h was -2.58%.
As to `CCn1nc(C)c(NC(=O)CN2CC[C@H](CO)[C@@H](O)C2)c1C`, the cytotoxicity at 70.5 h is -11.7%.
For the compound `COc1ccc(CCC(=O)N2CCNCC2C(=O)N2CCOCC2)cc1` (stereo unspecified), the cytotoxicity at 70.5 h was -7.95%.
In the case of `CNC(=O)C(C)(C)NC(=O)c1cc(COc2cccc(C(C)=O)c2)[nH]n1`, the cytotoxicity at 70.5 h was -6.29%.
With `Cc1cccc(OC2CCN(Cc3ncc[nH]3)CC2)c1` the figure was 15.5%.
With `Fc1ccccc1C(CNc1ccncn1)N1CCCC1` (stereo unspecified) the figure was -8.28%; with `Cc1ncsc1CCN(C)Cc1cc2n(n1)CCN(S(C)(=O)=O)C2`, -6.95%; with `CCc1nc(CN(C)Cc2nc(-c3ccccc3Cl)oc2C)no1`, -14.3%.
`COCCN(C)C[C@@H]1CN(C(=O)c2c(F)ccc(OC)c2F)C[C@@H]1CO`: the cytotoxicity at 70.5 h was 47.7%.
With `O=C(CSc1ccccn1)N1CCN(CCO)[C@@H]2CS(=O)(=O)C[C@@H]21` the figure was 2.3%; with `CC(C)[C@@H]1CN(C(=O)CN(C)Cc2ccccc2)C[C@H]1C(=O)O`, -6.53%; with `COc1ccccc1OC1CCN(C(=O)CCCn2ccnc2)CC1`, -6.19%.
Consider `CCN(CC1CCOCC1)C(=O)Cn1cccc(C(F)(F)F)c1=O`, for which the cytotoxicity at 70.5 h is -7.19%.
With `CSCc1noc(CNC(=O)[C@H]2CNC[C@@H](C(=O)N3CCCC3)C2)n1` the figure was -14.4%; with `CN(Cc1cccc2cnccc12)C(=O)CCc1n[nH]c2c1CCCC2`, -9.31%.
With `CC(C)c1ncc(-c2cc(C3CCC3)nc(N)c2C#N)cn1` the figure was -8.31%; with `Fc1cnc(N2CCN(Cc3ccc(-c4cc[nH]n4)o3)CC2)nc1`, -3.42%.
With `Cc1nn(C)c(Oc2ccc(Cl)cc2)c1CN1CCOC(CN)C1` (stereo unspecified) the figure was -2.25%.
Turning to `O=C(c1cc[nH]n1)N1CCC(c2nccn2Cc2ccncc2)CC1`, the cytotoxicity at 70.5 h was 0.529%.
For `CC(C)CN1C(=O)CC[C@H]2CN(C(=O)c3ncc[nH]3)CC[C@H]21`, the cytotoxicity at 70.5 h was -0.867%.
Turning to `CO[C@@]1(C)C[C@@H](O)C12CCN(C(=O)c1ccccc1C(C)=O)CC2`, the cytotoxicity at 70.5 h was -7.26%.
